Measured values from patent US20130122541A1, “MICROORGANISM PRODUCTION OF HIGH-VALUE CHEMICAL PRODUCTS, AND RELATED COMPOSITIONS, METHODS AND SYSTEMS” (The Regents of the University of Colorado, priority 2010, published 2013).

What was measured:
MACH1-T1R = assay: MIC, microaerobic 96 well-plate, MOPS minimal media, IroK expression studies (Example 45); type: cell-based, E. coli; conditions: for MIC of other organic acids of similar molecular makeup on IroK expression: IroK expressed from pKK223-3
Procedure: The two oligonucleotides were added in a 1:1 ratio and annealed according to standard methodology in a thermal cycler. Ligation of the annealed primer product with the pKK223-3 expression vector (SEQ ID NO:008, Pharmacia, Piscataway, N.J.) was performed with T4 Ligase (Invitrogen, Carlsbad, Calif.) and incubated at 25° C. overnight. The ligation product was then electroporated into competent MACH1™-T1^R, plated on LB+ampicillan, and incubated at 37° C. for 24 hours. Plasmids were isolated and confirmed by purification and subsequent restriction digest and sequencing (Macrogen, Rockville, Md.). MICs were then determined corresponding to 1 mM IPTG induction.
The minimum inhibitory concentration (MIC) was determined microaerobically in a 96 well-plate format. Overnight cultures of strains were grown in 5 mL LB (with antibiotic where appropriate). A 1% (v/v) inoculum was introduced into a 15 ml culture of MOPS minimal media. After the cells reached mid-exponential phase, the culture was diluted to an OD600 of 0.200. The cells were further diluted 1:20 and a […] aliquot was used to inoculate each well of a 96 well plate (˜10^4 cells per well).

E. coli K12 = conditions: aerobic, 24 h; putrescine, cadaverine, spermidine 0.1 g/L, sodium bicarbonate 20 mM; value is the 3-HP concentration
BX3_0194 = assay: 3-HP production by BX3_0194 in SM3 medium without and with 10 μg/ml cerulenin; type: cell-based, E. coli
Procedure: All data are the average of triplicate cultures.
Under these conditions, the specific productivity after 24 hours is 1.3 g 3HP per gDCW.

BX3_0206 = assay: 3-HP production by BX3_0206 in SM3 medium without and with 10 μg/ml cerulenin; type: cell-based, E. coli
Procedure: All data are the average of triplicate cultures. […] Under these conditions, the specific productivity after 24 hours is […] 3HP per gDCW.

BX3_0195 = assay: 3-HP production by BX3_0195 in SM3 medium without and with 10 μg/ml cerulenin; type: cell-based, E. coli
Procedure: Cultures were started from freezer stocks by standard practice (Sambrook and Russell, 2001) into 50 mL of LB media plus 100 μg/mL ampicillin and grown to stationary phase overnight at 37° C. with rotation at 225 rpm. Five ml of this culture were transferred to 100 ml of SM3 media plus 40 g/L glucose, 100 μg/ml ampicillin, and 1 mM IPTG in triplicate 250-ml baffled flasks and incubated at 37° C., 225 rpm. […] Dry cell weight (DCW) is calculated as 0.33 times the measured OD600 value, based on baseline DCW to OD600 determinations. All data are the average of triplicate cultures.

[1] = 24 hr, SM3 medium, presence of 10 μg/ml cerulenin

## CC(=O)O [acetic, acetic acid]
MACH1-T1R
  MIC of other organic acids of similar molecular makeup on IroK expression: unchanged

## C=CC(=O)O [acrylic, acrylic acid]
MACH1-T1R
  MIC of other organic acids of similar molecular makeup on IroK expression: unchanged

## CC(O)C(=O)O (centres unmarked) [lactic, lactic acid]
MACH1-T1R
  MIC of other organic acids of similar molecular makeup on IroK expression: unchanged

## MKPALRDFIAIVQERLASVTA [IroK]
MACH1-T1R; expressed from pKK223-3, 1 mM IPTG, microaerobic, MOPS minimal media, 24 h
  fold increase in MIC of 3-HP on increased expression of IroK: > 2 fold

## O=C([O-])O.[Na+] [sodium bicarbonate]
E. coli K12
  Minimum inhibitory concentration (MIC) of 3-HP for E. coli K12 in M9 minimal media supplemented with the substance: 30 mg/mL

## C/C=C/C/C=C/CCC(=O)[C@H]1O[C@H]1C(N)=O [cerulenin]
BX3_0194
  specific productivity after 24 hours: 1.3 g 3HP per gDCW
BX3_0194; 4 hr
  3HP: 0.003 g/L
  OD600: 1.3
BX3_0194; 6 hr
  3HP: 0.14 g/L
  OD600: 2.6
BX3_0194; 8 hr
  3HP: 0.43 g/L
  OD600: 3.1
BX3_0194; 24 hr
  3HP: 1.43 g/L
  OD600: 3.3
BX3_0206; [1]
  3HP: 0.43 g/L
  OD600: 6.4
BX3_0206; BX3_0206, SM3 medium, 10 μg/ml cerulenin
  specific productivity after 24 hours: 0.20 g 3HP per gDCW
BX3_0195
  specific productivity after 24 hours: 0.54 g 3HP per gDCW
BX3_0195; 4 hr
  3HP: 0.003 g/L
  OD600: 0.97
BX3_0195; 6 hr
  3HP: 0.07 g/L
  OD600: 1.57
BX3_0195; 8 hr
  3HP: 0.31 g/L
  OD600: 2.36
BX3_0195; 24 hr
  3HP: 1.17 g/L
  OD600: 6.59
